Source: patent US20060258692A1, “Quinazolinone compositions for regulation of gene expression related to pathological processes” (priority 2002, published 2006)

Legend:
IGFBP-1 in HepG2 cells = experiment: IGFBP-1 gene expression and secretion in HepG2 cells, dose and time response
[1] = tested on: IGFBP-1 in rat primary hepatocytes; experiment: IGFBP-1 synthesis in rat primary hepatocytes (Western blot); format: cell-based
[2] = tested on: IGFBP-1 in HepG2, Huh-7, Hep3B, Det551, ROS and HSC cells; experiment: IGFBP-1 synthesis in various cell types (Northern and Western blot); format: cell-based, human; rat; settings: 50 nM halofuginone, serum-free medium, hepatocyte lines vs fibroblasts, osteoblasts
[3] = tested on: TAA-induced cirrhotic liver; experiment: Liver regeneration after 70% partial hepatectomy in TAA-induced cirrhotic rats
[4] = tested on: rats with TAA-induced liver fibrosis
[5] = tested on: collagen α1(I) gene expression; settings: skin fibroblasts in culture, incl. from scleroderma or cGVHD patients; cited from earlier work
IGFBP-3 mRNA = experiment: Northern blot of liver biopsies with IGFBP-3 probe
IGFBP-1 gene expression = experiment: Northern blot and in situ hybridization of liver biopsies with IGFBP-1 probe
[6] = tested on: rats insulted with dimethylnitrosamine (DMN) or thioacetamide (TAA); settings: cited from earlier work
HepG2 cells = experiment: HepG2 cell proliferation (cell number); settings: 24 h, halofuginone at concentration that affect IGFBP-1 synthesis
stellate cells (HSC-T6) = experiment: Stellate cell motility assay (phagokinetic tracks); settings: conditioned medium of HepG2 treated with 50 nM halofuginone (contains IGFBP-1) added to HSC
[7] = tested on: PRL-1 and Apolipoprotein AIV; experiment: Northern blot validation of Atlas microarray results in liver biopsies; format: in vivo, rat; settings: TAA vs TAA plus halofuginone

C[C@@H]1C[C@@H]([C@H](O)CC2CC(=O)NC(=O)C2)C(=O)[C@@H](C)C1 [cyclohexamide]
effect on halofuginone-dependent increase in IGFBP-1 gene expression (IGFBP-1 in HepG2 cells; 10 μg/ml cyclohexamide with 50 nM halofuginone, 24 h): annulled

insulin: insulin, comparator incubated with rat primary hepatocytes
IGFBP-1 synthesis (Western blot) ([1]; insulin, 24 h (10 nM, 100 nM elsewhere in the source)): reduction in IGFBP-1 synthesis

O=C(CC1NCCC[C@H]1O)Cn1cnc2cc(Br)c(Cl)cc2c1=O (stereo in doubt) [halofuginone, 7-bromo-6-chloro-3-[3-(3-hydroxy-2-piperidinyl)-2-oxopropyl]-4(3H)-quinazolinone]
cell types responding with IGFBP-1 gene expression and synthesis [2]: Only cells of the hepatocyte origin demonstrated increased IGFBP-1 gene expression and synthesis
PCNA labeling index ([3]; eight weeks of halofuginone after TAA, 48 hours after 70% PHx, untreated animals 18.8±2.9): 31.4±6.4
restituted liver mass ([3]; eight weeks of halofuginone in diet after TAA, 48 hours after 70% PHx, control food group 13.7±4.5, p<0.05): 24.2±5.7%
liver Ishak staging ([3]; halofuginone treatment of TAA cirrhotic rats): decrease
Ishak staging of fibrosis (grade) ([4]; TAA 200 mg/kg twice weekly plus halofuginone 5 ppm in the diet, 4 weeks, TAA alone grade 5-6): 1-2
αSMA-positive (activated) stellate cells ([4]; TAA plus halofuginone given orally (5 ppm in diet), 4 weeks, immunohistochemistry): only traces
collagen level (Sirius red) ([4]; TAA plus halofuginone, 4 weeks): low levels of collagen
level of TIMP-2 ([4]; TAA plus halofuginone, 4 weeks, compared with TAA-treated rats): reduced
collagen α1(I) gene expression by remaining stellate cells ([4]; TAA plus halofuginone, 4 weeks, in situ hybridization): low levels
ECM, collagen, αSMA stellate cells, collagen α1(I) expression, TIMP-2 ([4]; rat, in vivo): No changes
collagen α1(I) gene expression and collagen production [5]: attenuated
IGFBP-1 gene expression (Northern blot) (IGFBP-1 in HepG2 cells; 10 nM halofuginone, 24 h, further increase at higher concentrations, no expression without halofuginone): increased IGFBP-1 gene expression
time after halofuginone treatment at which increased IGFBP-1 gene expression was observed (IGFBP-1 in HepG2 cells; 50 nM halofuginone): 6 h
time after which IGFBP-1 content in the conditioned media increased (IGFBP-1 in HepG2 cells; 50 nM halofuginone): 10 to 15 h
IGFBP-1 in conditioned medium after halofuginone removal (IGFBP-1 in HepG2 cells; 50 nM halofuginone for 11 h, washed, fresh medium for additional 13 h, compared with untreated cells): high levels of IGFBP-1
incubation time needed for increase in IGFBP-1 secretion (IGFBP-1 in HepG2 cells; 50 nM halofuginone, medium replaced, IGFBP-1 detected 23 h later): one hour of incubation with halofuginone was sufficient
concentration at which an increase in the level of IGFBP-1 in conditioned medium starts (Western blot) (IGFBP-1 in HepG2 cells; HepG2, 24 h): ≥ 50 nM
IGFBP-3 mRNA levels (IGFBP-3 mRNA; after 1 week of treatment, any of the groups): No changes
effect on TAA-induced increase in IGFBP-3 level (IGFBP-3 mRNA; after 2 and 4 weeks): partially prevented
IGFBP-3 mRNA levels (IGFBP-3 mRNA; halofuginone alone, any time-points examined): no effect
effect on TAA-induced down-regulation of IGFBP-1 gene expression (Northern blot) (IGFBP-1 gene expression; after 2 and 4 weeks of treatment): prevented the TAA-induced down-regulation
effect on TAA-induced reduction in IGFBP-1 gene expression (Northern blot) (IGFBP-1 gene expression; after one week of TAA treatment): without any effect
level of IGFBP-1 mRNA (Northern blot) (IGFBP-1 gene expression; halofuginone alone): slight effect
IGFBP-1 gene expression by in situ hybridization, TAA-induced decrease (IGFBP-1 gene expression; liver sections after 4 weeks, TAA plus halofuginone): prevented
IGFBP-1 synthesis (Western blot) ([1]; halofuginone 1 nM, 24 h): increased the synthesis of IGFBP-1
fibrotic condition ([6]; given to rats with established fibrosis): almost complete resolution
HSC activation, increase in collagen α1(I) gene expression and collagen deposition ([6]; rats insulted with DMN or TAA): prevent HSC activation and abolish the increase in collagen α1(I) gene expression and collagen deposition
cell proliferation (cell number) (HepG2 cells): significant reduction in cell proliferation
HSC cell motility (track area) (stellate cells (HSC-T6)): significant inhibition in cell motility
PRL-1 and Apolipoprotein AIV expression by Northern blotting [7]: confirmed the Atlas microarray findings
